Experimental data published in patent publication US9102622B2 (University of Connecticut, priority 2006, dated 2015).

Key:
[1] = target: fatty acid amide hydrolase (FAAH) (Rattus norvegicus (Rat), UniProt P97612); assay: FAAH enzyme assay: inhibition of anandamide (AEA) hydrolysis, arachidonic acid quantified by HPLC; format: biochemical; details: for inhibition at 100 µM: inhibitor 100 μM, partially purified rat brain FAAH, 15 min, read-out: % Inhibition (Concentration); for IC50 / Ki: eight-point assay; for IC50: anandamide hydrolysis by FAAH, read-out: IC50; for Ki: calculated with Prizm software, read-out: Ki
Method: The resulting supernatant is injected onto the HPLC.

Sequence of fatty acid amide hydrolase (FAAH) (P97612 whole entry): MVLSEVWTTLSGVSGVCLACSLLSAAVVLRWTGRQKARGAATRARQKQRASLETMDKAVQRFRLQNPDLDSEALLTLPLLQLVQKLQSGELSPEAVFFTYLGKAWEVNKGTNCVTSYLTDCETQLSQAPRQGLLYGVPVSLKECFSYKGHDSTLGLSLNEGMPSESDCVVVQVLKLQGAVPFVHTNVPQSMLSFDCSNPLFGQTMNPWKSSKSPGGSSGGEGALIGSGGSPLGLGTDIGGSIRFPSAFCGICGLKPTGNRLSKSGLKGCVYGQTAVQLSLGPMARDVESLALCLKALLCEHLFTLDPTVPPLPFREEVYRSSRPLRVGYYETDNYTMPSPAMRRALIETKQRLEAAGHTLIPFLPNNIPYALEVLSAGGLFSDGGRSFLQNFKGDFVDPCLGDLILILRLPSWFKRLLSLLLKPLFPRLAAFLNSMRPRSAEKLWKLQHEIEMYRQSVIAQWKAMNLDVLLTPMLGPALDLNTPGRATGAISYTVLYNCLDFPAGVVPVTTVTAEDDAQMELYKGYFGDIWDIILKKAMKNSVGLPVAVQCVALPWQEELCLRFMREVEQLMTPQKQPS

| Compound | melting point | inhibition at 100 µM ([1]; one-point assay) | IC50 [1] | Ki [1] | % Inhibition (Concentration) ([1]; one-point assay, concentration not given) |
| --- | --- | --- | --- | --- | --- |
| O=S(=O)(F)CCCCCCCc1ccc(OCc2ccccc2)cc1 [Compound 13.1, 7-(4-Benzyloxy-phenyl)-heptanesulfonyl fluoride] | 35 to 38 °C | 100% |  |  |  |
| COS(=O)(=O)CCCCCCCc1ccc(OCc2ccccc2)cc1 [Compound 18, 7-(4-Benzyloxy-phenyl)-heptane-1-sulfonic acid methyl ester] | 57 to 59 °C | 93% | 0.256 µM | 0.078 µM |  |
| O=S(=O)(F)CCCCCc1ccc(O)cc1 [Compound 14.4, 5-(4-Hydroxy-phenyl)-pentanesulfonyl fluoride] | 32 to 35 °C | 99% | 0.346 µM |  |  |
| O=S(=O)(F)CCCCCc1ccc(OCc2ccccc2)cc1 [Compound 13.4, 5-(4-Benzyloxy-phenyl)-pentanesulfonyl fluoride] | 66 to 68 °C | 97% | 0.18 µM | 0.015 µM |  |
| Cc1nnc(C(=O)c2cccc(-c3cccc(OCc4ccccc4)c3)c2)o1 [Compound 78, 1-(3′-Benzyloxy-1,1′-biphenyl-3-yl)-1-(5-methyl-1,3,4-oxadiazol-2-yl)-ketone] | 97 to 99 °C | 56% |  |  |  |
| O=S(=O)(F)CCCCCCCc1ccc(O)cc1 [Compound 14.1, 7-(4-Hydroxy-phenyl)-heptanesulfonyl fluoride] | 47 to 51 °C | 100% |  |  |  |
| O=C(CCCCCCOc1ccc(O)cc1)C(F)(F)F [Compound 24.4, 1,1,1-Trifluoro-8-[4-(hydroxy)phenoxy]-2-octanone] | 61 to 62 °C | 89% | 0.76 µM | 0.054 µM |  |
| O=C(CCCCOc1ccccc1O)C(F)(F)F [Compound 24.9, 1,1,1-Trifluoro-6-[2-(hydroxy)phenoxy]-2-hexanone] | 51 to 52 °C | 60% | 23.9 µM | 1.6 µM |  |
| O=C(CCCCCCOc1ccc(OCc2ccccc2)cc1)C(F)(F)F [Compound 23.4, 1,1,1-Trifluoro-8-[4-(Benzyloxy)phenoxy]-2-octanone] | 82 to 83 °C | 88% | 11.8 µM | 0.83 µM |  |
| O=C(CCCCCOc1ccccc1OCc1ccccc1)C(F)(F)F [Compound 23.10, 1,1,1-Trifluoro-7-[2-(Benzyloxy)phenoxy]-2-heptanone] | 31 to 32 °C | 95% | 7.9 µM | 0.553 µM |  |
| O=C(CCCCCOc1ccc(OCc2ccccc2)cc1)C(F)(F)F [Compound 23.3, 1,1,1-Trifluoro-7-[4-(Benzyloxy)phenoxy]-2-heptanone] | 59 to 60 °C | 94% | 2.9 µM | 0.32 µM |  |
| O=C(NCCCc1ccccc1)Nc1ccccn1 [Compound 59.2, N-(3-phenylpropyl)-N′-(2-pyridinyl)-urea] | 127 to 128 °C |  |  |  |  |
| O=C(CCCCOc1ccc(OCc2ccccc2)cc1)C(F)(F)F [Compound 23.2, 1,1,1-Trifluoro-6-[4-(Benzyloxy)phenoxy]-2-hexanone] | 95.5 to 96 °C | 76% | 13.6 µM | 1.2 µM |  |
| O=S(=O)(Cl)CCCCOc1ccccc1 [Compound 16, 4-Phenoxybutyl sulfonyl chloride] | 65 to 67 °C | 99% | 53.8 µM | 12.7 µM |  |
| O=C(CCCCOc1ccc(O)cc1)C(F)(F)F [Compound 24.2, 1,1,1-Trifluoro-6-[4-(hydroxy)phenoxy]-2-hexanone] | 63 to 64 °C | 60% | 23.2 µM | 2.6 µM |  |
| O=S(=O)(Cl)CCCCCCCc1ccc(OCc2ccccc2)cc1 [Compound 12.1, 7-(4-Benzyloxy-phenyl)-heptanesulfonyl chloride] | 33 to 35 °C | 99% | 53.8 µM | 12.7 µM |  |
| Oc1cccc(OCCCC(O)(O)C(F)(F)F)c1 (hydrate or solvate) [Compound 24.5, 1,1,1-Trifluoro-2,2-dihydroxy-5-[3-(hydroxy)phenoxy]pentane] | 76 to 77 °C |  |  |  |  |
| O=C(CCCCOc1ccccc1)C(F)(F)F [Compound 23.12, 1,1,1-Trifluoro-6-phenoxy-2-hexanone] | 50 to 51 °C | 65% | 25.4 µM | 2.8 µM |  |
| O=C(Nc1ccc(I)cc1)Oc1ccccc1 [Compound 48.6, (4-Iodophenyl)carbamic acid phenyl ester] |  | 84% |  |  |  |
| O=C(CCCOc1ccccc1OCc1ccccc1)C(F)(F)F [Compound 23.8, 1,1,1-Trifluoro-5-[2-(Benzyloxy)phenoxy]-2-pentanone] | 50 to 51 °C | 46% | 34.6 µM | 2.28 µM |  |
| Cc1nnc(C(=O)C(F)(F)c2ccc(Br)cc2)o1 [Compound 93.5, 2-(4-Bromophenyl)-2,2-difluoro-1-(5-methyl-1,3,4-oxadiazol-2-yl)ethanone] |  | 97% | 1.67 µM | 0.53 µM |  |
| O=S(=O)(F)CCCCOc1ccccc1 [Compound 17, 4-Phenoxybutylsulfonyl fluoride] | 74 to 76 °C | 100% | 0.226 µM | 0.053 µM |  |
| O=S(=O)(F)CCCCCCCCc1ccccc1 [Compound 4.3, 8-Phenyl-octanesulfonyl fluoride, reference compound] |  |  |  |  | 24% |
| CCCCCCC(C)(C)c1cc(OCOC)c(-c2ccc(NC(=O)OCC)cc2)c(OCOC)c1 [Compound 52.2, 2′,6′-Bis(methoxymethoxy)-4′-(1,1-dimethylheptyl)[1,1′-biphenyl]-4-yl carbamic acid ethyl ester] |  | 64% |  |  |  |
| O=C(CCCOc1ccc(OCc2ccccc2)cc1)C(F)(F)F [Compound 23.1, 1,1,1-Trifluoro-5-[4-(benzyloxy)phenoxy]-2-pentanone] | 59 to 61 °C | 96% | 1.8 µM | 0.15 µM |  |
| O=C(CCCCCCOc1ccc(O)cc1)c1nnc(COCc2ccccc2)o1 [Compound 74.2, 1-(5-benzyloxymethyl-1,3,4-oxadiazol-2-yl)-7-(4-hydroxy-phenoxy)-heptan-1-one] |  | 92% | 0.039 µM | 0.003 µM |  |
| O=C(NCCCc1ccccc1)NCc1ccccn1 [Compound 59.1, N-(3-phenylpropyl)-N′-(2-pyridinylmethyl)-urea] | 89 to 90 °C |  |  |  |  |
